Laboratory results: patent US8912186B2, “Allosteric protein kinase modulators” (Universitaet des Saarlandes, priority 2008, dated 2014)

Experiments:
[1] = tested on: PC3 prostate carcinoma cells; assay: MTT assay, number of living cells; type: cell-based; details: 36 h; for number of PC3 cells as compared to the DMSO-treated control (proliferation / cell death): serum starved, IGF-I, 5% FCS
Protocol: Cells were serum starved overnight and stimulated or not with 50 μg/ml IGF-I, then test compounds and 5% FCS were added, and cells grown for 36 h. A standard MTT assay was then performed to measure the number of living cells.
To measure the potency of selected compounds to inhibit growth of a cancer cell line, the widely established MTT assay was used. The assay principle relies on the formation of a purple formazan dye from MTT which has been added to the cultured cells due to mitochondrial reductase activity in intact cells. After 3-4 hours of cell incubation with MTT, formazan crystals develop in living and early apoptotic cells but not in dead cells. MTT is suitable for measuring cell proliferation and cell viability.
Thus the cell's viability critically relies on high activities of this pathway but on the other hand it requires highly efficient inhibitors to hit the cells.

PDK1 [2] = target: T1, PDK1 (Homo sapiens, UniProt O15530); assay: cell-free kinase activity assay (ATPgamma[32P], T308tide substrate); type: biochemical; details: n.e.: no effect
T1 construct: GST
T1 sequence (O15530 1-556): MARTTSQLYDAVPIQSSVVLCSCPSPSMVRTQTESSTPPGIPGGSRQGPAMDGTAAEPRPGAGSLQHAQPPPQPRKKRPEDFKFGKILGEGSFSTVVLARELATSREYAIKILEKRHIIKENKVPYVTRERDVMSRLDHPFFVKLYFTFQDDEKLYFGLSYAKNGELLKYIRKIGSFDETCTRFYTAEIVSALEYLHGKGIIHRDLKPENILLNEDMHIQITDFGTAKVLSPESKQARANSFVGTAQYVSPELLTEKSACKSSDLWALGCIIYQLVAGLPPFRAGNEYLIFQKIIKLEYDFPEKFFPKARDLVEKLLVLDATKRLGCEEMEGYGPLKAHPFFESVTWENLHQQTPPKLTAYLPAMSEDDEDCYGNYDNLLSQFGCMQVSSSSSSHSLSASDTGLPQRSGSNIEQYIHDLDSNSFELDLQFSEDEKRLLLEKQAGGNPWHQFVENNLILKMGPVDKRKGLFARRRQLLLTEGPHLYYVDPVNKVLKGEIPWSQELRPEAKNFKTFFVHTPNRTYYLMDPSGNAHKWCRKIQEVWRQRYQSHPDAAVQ
How it was run: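 Radiometric ATPγ[32P] kinase assay; for PDK1, 200 ng enzyme with 1 mM T308tide substrate, run at room temperature for 30 min. Reaction started with ATP-Mg and stopped with phosphoric acid. Incorporated radioactivity measured after spotting on phosphocellulose paper and washing.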

PDK1 [3] = target: T2, PDK1 (Homo sapiens, UniProt O15530); assay: TNP-ATP fluorescence probe of the ATP binding site conformation; details: for TNP-ATP fluorescence intensity in the presence of PDK1: addition to the TNP-ATP-PDK1 mixture
T2 construct: maximal fluorescence intensity of TNP-ATP obtained with addition of 15 μM PDK1 CD
T2 sequence (O15530 82-342 limits assumed): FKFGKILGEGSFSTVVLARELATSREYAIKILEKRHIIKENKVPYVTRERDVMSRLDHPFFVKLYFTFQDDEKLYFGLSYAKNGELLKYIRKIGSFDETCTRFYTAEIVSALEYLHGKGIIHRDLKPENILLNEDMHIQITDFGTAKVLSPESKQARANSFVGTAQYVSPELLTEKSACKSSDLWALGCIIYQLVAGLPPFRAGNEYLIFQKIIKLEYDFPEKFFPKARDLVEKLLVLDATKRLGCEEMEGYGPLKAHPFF
Protocol: In order to shed further light on the conformational change induced by the binding of small compounds to the PIF-binding pocket of PDK1, we developed a method to probe the ATP binding site conformation in solution with the use of a fluorescent ATP analogue, trinitrophenyl-ATP (TNP-ATP; FIG. 5A). […] Since the decrease in fluorescence intensity was also measured with phosphorylated HM polypeptides and PIFtide, it is likely that the ATP-binding site conformational change measured was actually related to the equivalent events that activate PDK1 by low molecular weight compounds and HM-polypeptides.
(A) TNP-ATP formulae. (B, C and D) Fluorescence intensities are expressed as % of the maximal fluorescence intensity of TNP-ATP obtained with addition of 15 μM PDK1 CD. (B) Effect of PDK1 addition on TNP-ATP fluorescence. (C) Addition of PS08 to the TNP-ATP-PDK1 mixture triggered a concentration dependent decrease of the fluorescence intensity. At 167 μM PS08 (=PS-T-8), the maximum fluorescence intensity was 60%, similar to TNP-ATP alone. (D) Effect of 167 μM PS133, the isomer compound PS08 to the TNP-ATP-PDK1.

For `O=C(O)/C=C(/CSc1ccc(Cl)cc1)c1ccccc1` [PS 99, (E)-4-(4-Chlorophenylthio)-3-phenylbut-2-enoic acid], the “concentration at which effects were detectable” value ([1]; PC3 cells) was 10 to 20 µM, the “number of PC3 cells as compared to the DMSO-treated control (proliferation / cell death)” value [1] was “can inhibit the proliferation of/or induce cell death of cancer cells” and the “number of PC3 cells as compared to the DMSO-treated control (proliferation / cell death)” value ([1]; listed as PS99) was “significantly reduced”. The AC50 (PDK1 [2]; concentration of the compound required to activate half maximally) was 22.8 µM and the “max. activation of PDK1 (fold)” value (PDK1 [2]; maximum activation achievable, compared to the basal activity of PDK1) was 2.6 fold.
With `O=C(O)/C=C(\CCc1ccc(Br)cc1F)c1ccccc1` [PS 133, (E)-5-(4-Bromo-2-fluorophenyl)-3-phenylpent-2-enoic acid] the “TNP-ATP fluorescence intensity in the presence of PDK1” value (PDK1 [3]) was “did not affect”.
In the case of `O=C(O)/C=C(/CCc1ccc(Br)cc1F)c1ccccc1` [PS-T8, (Z)-5-(4-Bromo-2-fluorophenyl)-3-phenylpent-2-enoic acid], the “maximum fluorescence intensity of TNP-ATP” value (PDK1 [3]; 167 μM compound, % of the maximal fluorescence intensity of TNP-ATP obtained with 15 μM PDK1 CD) is reported as 60% and the “TNP-ATP fluorescence intensity in the presence of PDK1” value (PDK1 [3]) is reported as “concentration-dependent decrease”.
`CO[C@H]1C[C@@H]2CC[C@@H](C)[C@@](O)(O2)C(=O)C(=O)N2CCCC[C@H]2C(=O)O[C@H]([C@H](C)C[C@@H]2CC[C@@H](O)[C@H](OC)C2)CC(=O)[C@H](C)/C=C(\C)[C@@H](O)[C@@H](OC)C(=O)[C@H](C)C[C@H](C)/C=C/C=C/C=C/1C` [rapamycin, reference compound] was tested, and the EC50 ([1]; Homo sapiens, PC-3, PC3 cells, control drug) was roughly 1 µM.
